Experimental findings from patent EP0107165A1, “Substituted 9H-8-oxo-pyrimido(2,1-f)purine-2,4-diones, process for their production and pharmaceutical compositions containing them” (SCHERING CORPORATION, priority 1982, dated 1984) are described below.

Data set [1] in a line: Ulcerogenicity test (oral administration). To be noted: dosages as high as 100mpk. Format: in vivo.
Data set [2] deals with RPAR Synovitis. Briefly: Reversed Passive Arthus-Reaction (RPAR) Synovitis technique. The data set is classed as in vivo, male Lewis rats. To be noted: dosage of 50 mpk, oral, split dose (half one hour before, half three hours after lesion induction); delta synovial weight about 17 hours after lesion induction; Lewis rat. How it is done:
The anti-inflammatory potential of the compounds of the present invention may be determined by the Reversed Passive Arthus-Reaction (RPAR) Synovitis technique as set forth below using male Lewis rats (obtained from Charles River Breeding Laboratories) weighing 200-250 g. The potency of the compounds is determined using indo- methacin as the standard. On the basis of the test results, a dosage range of about 0.1 milligrams per kilogram of body weight per day to about 50 milligrams per kilogram of body weight per day in divided doses at about 4 hour intervals is recommended. For the preferred compounds of the invention tested, it is considered that the compounds are effectively non-toxic at the dose- rates indicated for treatment of inflammatory conditions. […]
The following morning (about 17 hours after lesion induction) the rat is killed and both knee joints are exposed. […] Differences in delta synovial weight between lesion controls and drug- treated rats are evaluated for statistical significance with an analysis of variance. Relative potencies are determined with a linear regression analysis. […]

SMILES strings stand for the structures.

As to `CCCc1c(O)n(Cc2ccccc2)c2nc3c(c(=O)n(C)c(=O)n3C)n2c1=O` [A, 9-benzyl-1,3-dimethyl-8-hydroxy-7-n-propyl-9H-6-. oxo-pyrimido[2,1-f]purine-2,4-dione], the ulcerogenic result in data set [1] is “not to be ulcerogenic”. The “percentage inhibition of inflammation (I)” value in data set [2] is recorded as 46%. For `CCCCc1c(O)n(Cc2ccccc2)c2nc3c(c(=O)n(C)c(=O)n3C)n2c1=O` [B, 9-benzyl-1,3-dimethyl-8-hydroxy-7-(n-butyl)-9H-6-oxo-pyrimido[2,1-f]purine-2,4-dione], in data set [2], the “percentage inhibition of inflammation (I)” value is recorded as 48%.
